Source: US10702568B2, “Compositions containing silymarin and sulfoalkyl ether cyclodextrin and methods of using the same” (UNIVERSITY OF KANSAS, priority 2015, dated 2020)
Values after ≈ are worked out from the molar mass of the structure shown.

Columns and labels:
Format in all cases: physicochemical
[1] = Silymarin solubility at elevated temperatures (Example 3, HPLC); settings: 160 mg silymarin in 1 ml 0.1 M CAPTISOL®, sealed vial, 70-75° C., about one hour
Procedure: The solubility of silymarin was also studied at elevated temperatures. The silymarin-water samples were prepared by adding 3.0 ml of deionized water or 3.0 ml of CAPTISOL® solution (0.05 M, 0.10 M, or 0.20 M) to 155 mg silymarin 80% in 5 ml Eppendorf tube, and the tubes were capped securely to minimize evaporation loss and submerged in a water bath at an elevated temperature (60° C. or 75° C.)). CAPTISOL® solutions were prepared by dissolving CAPTISOL® in water. The solution in the tube was stirred for a certain amount of time. The solution was then centrifuged for 5 min twice and the supernatant was diluted with 40% methanol for HPLC analysis. The silymarin CAPTISOL® samples were diluted by adding 10 μL supernatant sample to 990 μL diluent. The silymarin water samples were diluted by adding 100 μL supernatant sample to 900 μL diluent. The diluted samples were then analyzed using HPLC according to the procedures described in Example 1.
Saturated CAPTISOL® silymarin solutions were also prepared by adding 160 mg silymarin to 1 ml of 0.1 M CAPTISOL® solution in a sealed vial under mechanic stirring and the vial was kept in a water bath at 70-75° C. The solution became quickly saturated in about one hour. The solution was then cooled to room temperature and centrifuged, and the supernatant can then be used for preparing various formulations. […]

[2] = Solubility of silymarin components in water (Example 10, HPLC); settings: water; component of Indena silymarin extract, HPLC; read-out: Solubility in water
Procedure: (§1) Silymarin components including taxifolin, silydianin, silychristin, silybin A, silybin B, isosilybin A, and isosilybin B were tested for their solubility in water and also for their Log D value. The silymarin extract was obtained from Indena® (Indena Code: 9065110). The HPLC system consisted of Waters system equipped with performance PLUS inline degasser along dual λ absorbance detector set at 288 nm. The chromatographic separation of silymarin constituents was achieved on a Symmetry Shield RP18 column (150×4.6 mm, 5 μm); which was maintained at ambient room temperature conditions. The binary mobile phase system consisted of reservoir A (methanol: 10 mM ammonium acetate pH 5 [65:35 v/v]) and reservoir B (10 mM ammonium acetate, pH 5) were run as per gradient program (0-1.9 min: 25% A and 75% B; 2.0-14.9 min: 80% A and 20% B and 15-37.9 min: 80% A and 20% B and 38-40 min: 25% A and 75% B). The flow rate was 1 mL/min throughout the analytical run.

[3] = Log D of silymarin components (octanol/buffer, HPLC); settings: octanol/universal buffer pH 7.4, 16 h shaking at room temperature; read-out: Log D (7.4 pH)
Procedure: as §1
To determine the Log D of silymarin components, the silymarin extract (2 mg) was dissolved in 100% DMSO and then used for the experiment. Different buffers between pH ranges of 1.0 to 12 were prepared by using universal buffer stock containing 25 mM hydrochloric acid, 25 mM citric acid, 25 mM phosphoric acid, 30 mM boric acid and 20 mM sodium chloride. About 45 mL of universal buffer was titrated with Sodium hydroxide (5M) to obtain desired pH. A 10 μL of silymarin stock solution was spiked into Eppendorf tube containing 500 μL each of a buffer and presaturated octanol. This mixture was vortexed for 5 minutes and kept for shaking at room temperature. After 16 h, the mixture was centrifuged at 10,000 RPM for 30 minutes. After centrifugation buffer and octanol phases were separated, both phases were diluted with acetonitrile (1:1) and subject to HPLC analysis for quantitation of individual components of silymarin. The Log D values of each compound at a pH was determined by Log D (pH)=Log [Organic (peak area)/Aqueous (peak area)].

[4] = Mutual phase solubility study of Silymarin-CAPTISOL® complex (method A, method B)
Procedure: Two methods, method A and method B, were used to prepare the silymarin-CAPTISOL® complexes and the phase solubility of the various components in the complexes were measured and compared. The silymarin extract was obtained from Indena® (Indena Code: 9065110).
In method A, the Silymarin-CAPTISOL® complex was prepared through a hot extraction method. […] The filtrates were analyzed using HPLC for Taxifolin, Silychristin, Silydianin, Silybin A, Silybin B, Isosilybin A and Isosilybin B after appropriate dilution.
In method B, the Silymarin-CAPTISOL® complex was prepared by combining the CAPTISOL® and silymarin at ambient temperature: 120 mg of the extract was incorporated in 0 10, 20, 40, 60, 80 and 100 mM concentrations of CAPTISOL® solution in water. These samples were shook at room temperature for 3 days. At equilibrium, samples were centrifuged at 10,000 RPM and filtered using Millipore (0.22 μm) syringe filter. The filtrates were analyzed using HPLC for Taxifolin, Silychristin, Silydianin, Silybin A, Silybin B, Isosilybin A and Isosilybin B after appropriate dilution.
The solubility of the Silymarin-CAPTISOL® complexes prepared using method A and method B were measured.

Question: Which “concentration fold higher than in the water silymarin sample” value [1] does the source give for `O=C1c2c(O)cc(O)cc2O[C@H](c2ccc(O)c(O)c2)[C@H]1O` [Taxifolin] here?
Answer: The value was 5 fold.

Question: What about the solubility [2] of the same molecule?
Answer: The solubility was 550 µg/mL (≈ 1810 µM).

Question: And the logD at 16 h [3]?
Answer: The logD at 16 h was 1.35.

Question: And the “number of fold increase in solubility” value ([4]; CAPTISOL® 10 mM, Method A (hot extraction 70-75° C., 60 minutes))?
Answer: The value was 1.95 fold.

Question: What about the “number of fold increase in solubility” value ([4]; CAPTISOL® 10 mM, Method B (ambient temperature, 3 days)) of the same molecule?
Answer: Its value is 1.97 fold.

Question: And the “number of fold increase in solubility” value ([4]; CAPTISOL® 20 mM, Method A (hot extraction 70-75° C., 60 minutes))?
Answer: The value was 3.32 fold.

Question: And the “number of fold increase in solubility” value ([4]; CAPTISOL® 20 mM, Method B (ambient temperature, 3 days))?
Answer: Its value is 3.06 fold.

Question: What about the “number of fold increase in solubility” value ([4]; CAPTISOL® 40 mM, Method A (hot extraction 70-75° C., 60 minutes)) of the same molecule?
Answer: The value was 3.54 fold.

Question: And the “number of fold increase in solubility” value ([4]; CAPTISOL® 40 mM, Method B (ambient temperature, 3 days))?
Answer: Its value is 3.39 fold.

Question: And the “number of fold increase in solubility” value ([4]; CAPTISOL® 60 mM, Method A (hot extraction 70-75° C., 60 minutes))?
Answer: The value was 4.26 fold.

Question: What about the “number of fold increase in solubility” value ([4]; CAPTISOL® 60 mM, Method B (ambient temperature, 3 days)) of the same molecule?
Answer: Its value is 3.48 fold.

Question: What about the “number of fold increase in solubility” value ([4]; CAPTISOL® 80 mM, Method A (hot extraction 70-75° C., 60 minutes)) of the same molecule?
Answer: The value was 4.51 fold.

Question: And the “number of fold increase in solubility” value ([4]; CAPTISOL® 80 mM, Method B (ambient temperature, 3 days))?
Answer: The value was 3.47 fold.

Question: And the “number of fold increase in solubility” value ([4]; CAPTISOL® 100 mM, Method A (hot extraction 70-75° C., 60 minutes))?
Answer: The value was 4.77 fold.

Question: What about the “number of fold increase in solubility” value ([4]; CAPTISOL® 100 mM, Method B (ambient temperature, 3 days)) of the same molecule?
Answer: The value was 3.72 fold.
